Like-named read-outs stand apart in the source and are kept apart here.
What was measured:
[1] = tested on: monocyte/macrophage activation; settings: in vitro
[2] = tested on: G93A SOD-1 mt. mouse model of ALS; settings: SOD-1 mutant mice, 2 mg/kg intravenously every three weeks
Protocol: Chlorite composition administration and survival studies have been done in G93A SOD-1 mt. mouse model of ALS. In this model, the SOD-1 mutant mice begin developing degeneration of neurologic function starting at approximately 70 days of age. The mice were dosed with chlorite composition at 2 mg/kg intravenously every three weeks with neuroscore and survival information being collected weekly.

IL-18 = settings: Phase 2, responders with elevated IL-18 at baseline
Description: (§1) These clinical data provided compelling rationale to test […] in pre-clinical models of Parkinson's disease to investigate its brain penetrance, ability to modulate microglia activation and peripheral immune cell infiltration to the CNS, and protect vulnerable neuronal populations from synuclein-induced degeneration.

LPS = settings: Phase 2, responders positive for LPS at baseline
Description: as §1

ALS patients = tested on: ALS patients
Description: as §1

markers of inflammation = settings: ALS patients, after a single dose
[3] = tested on: monocyte/macrophage activation; settings: in vivo
[4] = tested on: patient with posttraumatic stress disorder
Description: (§2) Plasma/serum samples are obtained and submitted to a lab-based immunoassay to quantify inflammatory markers in the plasma/serum sample. Inflammatory markers are compared to the patient's pre-treatment levels of plasma/serum inflammatory markers.

[5] = tested on: patient with schizophrenia
Description: as §2

patient with depression = tested on: patient with depression
Description: as §2

[6] = tested on: patient with bipolar disorder
Description: as §2

patient with autism = tested on: patient with autism
Description: as §2

sodium chlorite
markers of monocyte/macrophage activation [1]: reversed
survival compared with sham treated animals [2]: almost three weeks longer
neurologic degeneration (neuroscore) ([2]; vs sham): delayed by a similar time
IL-18 in responders following treatment (IL-18): decreased following treatment
LPS in responders following treatment (LPS): decreased following treatment
symptom progression in a subset of patients (ALS patients; Phase 2): may have dose-dependently halted symptom progression
slower rate of progression than placebo patients (ALS patients; Phase 2, 2 mg/kg, patients above the median wr-CRP, six months of study): 44%
dose dependence of disease progression in patients with above the median wr-CRP value (ALS patients; Phase 2, baseline wr-CRP above 1125 ng/ml): dose dependent slowing of disease progression
patients who did not progress / stopped progressing (ALS patients; Phase 2, high dose (2 mg/kg), six months of treatment): 25%
number of non-progressing patients relative to placebo (ALS patients; Phase 2, high dose, six months of treatment): More than 2 times
progression in patients with greater inflammation (higher CRP) (ALS patients; Phase 2, high-dose group): slowing of progression was observed
markers of inflammation (markers of inflammation): decrease markers of inflammation
reduction of the difference between ALS and normal control level of monocyte CD16 expression toward the normal value (monocyte CD16; 24 hours after one dose, compared with baseline pretreatment levels): approximately 50%
level of CD16 expression on the CD16 bright subset of monocytes (monocyte CD16; chlorite treated patients compared to placebo): Dose-dependent changes
markers of monocyte/macrophage activation [3]: reversed
behavioral and/or neurophysical symptoms of posttraumatic stress disorder ([4]; after weekly injection): found to be reduced
levels of plasma/serum inflammatory markers after treatment ([4]; posttraumatic stress disorder, vs pre-treatment levels): reduced
behavioral and/or neurophysical symptoms of schizophrenia ([5]; after weekly injection): found to be reduced
levels of plasma/serum inflammatory markers after treatment ([5]; schizophrenia, vs pre-treatment levels): reduced
behavioral and/or neurophysical symptoms of depression (patient with depression; after weekly injection): found to be reduced
levels of plasma/serum inflammatory markers after treatment (patient with depression; depression, vs pre-treatment levels): reduced
behavioral and/or neurophysical symptoms of bipolar disorder ([6]; after weekly injection): found to be reduced
levels of plasma/serum inflammatory markers after treatment ([6]; bipolar disorder, vs pre-treatment levels): reduced
behavioral and/or neurophysical symptoms of autism (patient with autism; after weekly injection): found to be reduced
levels of plasma/serum inflammatory markers after treatment (patient with autism; autism, vs pre-treatment levels): reduced

From patent US12109231B2 (Neuvivo, Inc., priority 2015, dated 2024)
